Assays:
[1] = test system: patients with ARSI-resistant mCRPC; assay: Phase 1 trial of AZD5069 plus enzalutamide: antitumour activity (RECIST v.1.1, PSA, CTC count); assay type: in vivo, human
Source text: Patients needed to be on treatment for at least 12 weeks to be considered a responder. Thirteen patients had assessable measurable disease by Response Evaluation Criteria in Solid Tumors v.1.1. […] All patients classed as partial responders had radiologic progression-free survival of more than 6 months. […] Three of four patients classed as partial responders, for whom pre-treatment tissue biopsy was available for androgen receptor splice variant 7 (AR-V7) immunohistochemistry (IHC) including the patient who received only abiraterone previously, had tumour expressing AR-V7 protein.
Radiologic tumour responses were measured by computerized tomography of the thorax, abdomen and pelvis, bone scan, and, where indicated, whole-body magnetic resonance imaging, at baseline, once every 3 cycles, and then at the end of treatment if this was more than 8 weeks since the last scan. PSA and CTC count were measured at baseline, and then on day 1 of every cycle, and at the end of treatment. CTC counts were analysed using previously described methods.
Secondary endpoints were:(i) the rate of objective response, with objective response defined as confirmed soft tissue objective response by Response Evaluation Criteria in Solid Tumors v.1.1 in those with measurable disease, and/or PSA decline ≥50% confirmed 4 weeks or later, and/or CTC count conversion from ≥5 per 7.5 ml of blood at baseline to <5 per 7.5 ml of blood at nadir; (ii) pharmacokinetic parameters, including maximum concentration, area under the concentration–time curve; and (iii) pharmacodynamic changes including identifying patients whose blood NLR, neutrophil, and intratumour myeloid cell density decrease. Exploratory endpoints included blood cytokine levels and evaluation of tumour molecular profile on response.
Sample size was chosen pragmatically. According to the rule-based 3 + 3 design, which guided dose-escalation decisions, the cohort size was three patients and skipping of dose levels was not allowed. Patients who completed the DLT period or experienced a DLT during the DLT period were considered part of the evaluable population. Patients who received at least one dose of study drug were considered part of the safety population. To be evaluable for response, the patient must have met the eligibility criteria, received at least three cycles of trial medication, and have had baseline assessment of disease. Comparisons of baseline characteristics between patients classed as responders and those classed as non-responders were carried out using the two-sided Mann–Whitney U-test. Comparisons of paired pharmacokinetic and pharmacodynamic parameters were carried out using the two-sided paired Wilcoxon signed-rank test. Safety variables and pharmacokinetic and pharmacodynamic endpoints were summarized descriptively.

[2] = test system: AR activity and AR-V7 signatures; assay: RNA profiling (HTG EdgeSeq) of paired FFPE tumour biopsies: AR activity and AR-V7 signatures; assay type: in vivo, human; settings: paired biopsies with decreased myeloid cell density (seven pairs)
Description: RNA profiling of FFPE tumour biopsies collected before and after starting AZD5069 was carried out by HTG EdgeSeq (HTG Molecular Diagnostics) using the HTG human transcriptome panel containing 19,616 nuclease protection probes (NPPs), including 19,398 gene target-specific 50-nucleotide probes, 100 negative control probes, 92 probes for RNA controls established by the External RNA Control Consortium, 22 probes that measure gDNA and 4 positive control probes. The assay was carried out with a minimum of 11 mm^2 of FFPE tumour micro-dissected sections. The sections were lysed according to the manufacturer’s instructions, and added to a 96-well plate on the HTG EdgeSeq Processor (HTG Molecular Diagnostics) on which a quantitative nuclease protection assay was carried out. The addition of DNA nuclease protection probes (NPPs) was automated and they were allowed to hybridize for 16 hours to the target mRNAs. The excess non-hybridized DNA probes and non-hybridized mRNA were removed by S1 digestion leaving only NPPs hybridized to mRNA. […] After clean-up and quantification by quantitative PCR using the kit KAPA Library Quantification Kit Illumina platforms, the libraries were pooled and sequenced on the NextSeq 500 using a High Throughput 75-cycle v.2.5 kit (Illumina). […] Data were analysed using the HTG EdgeSeq Reveal analysis software. […]

[3] = design: method as in AZD5069 Investigator Brochure (IB); settings: in vitro and in vivo studies; ref AZD5069 Investigator Brochure (IB); cited from earlier work
[4] = first partial responder at AZD5069 160 mg BD, at nadir (3–4 months)
[5] = partial responder at AZD5069 80 mg BD
[6] = partial responder at AZD5069 120 mg BD
[7] = second responder at AZD5069 160 mg BD

SMILES: C[C@@H](Oc1cc(NS(=O)(=O)N2CCC2)nc(SCc2cccc(F)c2F)n1)[C@@H](O)CO [AZD5069]
- objective partial response rate (RECIST v.1.1 ≥30% decrease, PSA decline ≥50% and/or CTC conversion) ([1]; 21 response-evaluable patients, all dose levels, plus enzalutamide): 24%
- CTC count ([1]; Patient 4 (as per Fig. 4a), C1D1): 5 CTC/7.5 ml blood
- CTC count ([1]; Patient 4, C1D15): 2 CTC/7.5 ml blood
- CTC count ([1]; Patient 4, C2D1): 1 CTC/7.5 ml blood
- CTC count ([1]; Patient 4, C3D1): 5 CTC/7.5 ml blood
- CTC count ([1]; Patient 4, C4D1): 3 CTC/7.5 ml blood
- CTC count ([1]; Patient 4, C5D1): 5 CTC/7.5 ml blood
- CTC count ([1]; Patient 4, C6D1): 5 CTC/7.5 ml blood
- CTC count ([1]; Patient 4, C7D1): 3 CTC/7.5 ml blood
- CTC count ([1]; Patient 4, C8D1): 12 CTC/7.5 ml blood
- CTC count ([1]; Patient 4, C9D1): 14 CTC/7.5 ml blood
- CTC count ([1]; Patient 4, C10D1): 33 CTC/7.5 ml blood
- CTC count ([1]; Patient 4, C11D1): 34 CTC/7.5 ml blood
- CTC count ([1]; Patient 4, C12D1): 57 CTC/7.5 ml blood
- CTC count ([1]; Patient 4, C13D1): 52 CTC/7.5 ml blood
- CTC count ([1]; Patient 4, C14D1): 53 CTC/7.5 ml blood
- CTC count ([1]; Patient 4, C15D1): 96 CTC/7.5 ml blood
- CTC count ([1]; Patient 4, C16D1): 235 CTC/7.5 ml blood
- CTC count ([1]; Patient 4, C17D1): 86 CTC/7.5 ml blood
- CTC count ([1]; Patient 4, C18D1): 97 CTC/7.5 ml blood
- CTC count ([1]; Patient 4, Treatment Discontinuation): 119 CTC/7.5 ml blood
- CTC count ([1]; Patient 10 (as per Fig. 4a), C1D1): 39 CTC/7.5 ml blood
- CTC count ([1]; Patient 10, C1D15): 26 CTC/7.5 ml blood
- CTC count ([1]; Patient 10, C2D1): 19 CTC/7.5 ml blood
- CTC count ([1]; Patient 10, C3D1): 0 CTC/7.5 ml blood
- CTC count ([1]; Patient 10, C4D1): 10 CTC/7.5 ml blood
- CTC count ([1]; Patient 10, C5D1): 46 CTC/7.5 ml blood
- CTC count ([1]; Patient 10, C9D1): 101 CTC/7.5 ml blood
- CTC count ([1]; Patient 10, Treatment Discontinuation): 129 CTC/7.5 ml blood
- radiologic progression-free survival of patients classed as partial responders ([1]; all five partial responders): more than 6 months
- radiologic progression-free survival ([1]; first partial responder at AZD5069 160 mg BD): 8 months
- PSA fall [1, 4]: 84%
- decrease in nodal disease [1, 4]: 20%
- PSA on treatment ([1]; first partial responder at AZD5069 160 mg BD, at nadir, from 344 ng ml^−1): 55 ng/mL
- duration of CTC conversion [1, 5]: seven
- time on trial [1, 5]: 16 months
- CTC count ([1]; partial responder at AZD5069 80 mg BD, at cycle 2, baseline 9): 1 per 7.5 ml of blood
- duration of radiologic and clinical responses [1, 6]: 11 months
- reduction of measurable disease [1, 6]: 31%
- PSA fall ([1]; partial responder at AZD5069 120 mg BD, after 5 cycles): 89%
- PSA on treatment ([1]; partial responder at AZD5069 120 mg BD, after 5 cycles, from 98 ng ml^−1): 11 ng/mL
- time to new bone metastases ([1]; partial responder at AZD5069 320 mg BD): 8 months
- PSA reduction ([1]; partial responder at AZD5069 320 mg BD, after four cycles): 64%
- PSA on treatment ([1]; partial responder at AZD5069 320 mg BD, after four cycles, from 129 ng ml^−1): 47 ng/mL
- PSA change [1, 7]: no PSA decrease
- radiologic progression-free survival [1, 7]: 8 months
- CTC count, peak ([1]; second responder at AZD5069 160 mg BD, during cycle 1, baseline 11): 39 per 7.5 ml of blood
- CTC count ([1]; second responder at AZD5069 160 mg BD, during cycle 4): 0 per 7.5 ml of blood
- AR activity and AR-V7 mRNA signatures in tumour biopsies [2]: downregulation of AR activity and AR-V7 signatures
- genotoxicity [3]: not genotoxic

— PMC10686834, “Targeting myeloid chemotaxis to reverse prostate cancer therapy resistance” (Nature, 2023)
